Assay results taken from patent US20260223850A1, “SUBSTITUTED PYRROLIDONE COMPOUND, PREPARATION METHOD THEREFOR, COMPOSITION AND APPLICATION THEREOF” (QINGDAO KINGAGROOT CHEMICAL COMPOUND CO., LTD., priority 2023, published 2026).

Experiments:
Test in all cases: Seedling stage sealing experiment for water-seeding
Assay type in all cases: in vivo
[1] = system: Echinochloa crusgalli; settings: 120 g a.i./ha, seedling stage sealing, 15 days, fresh weight control rate
[2] = system: Echinochloa phyllopogon; settings: 120 g a.i./ha, seedling stage sealing, 15 days, fresh weight control rate
Method in brief: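 Seeds sown on soil in pots kept moist in water-filled boxes, then sprayed with acetone/water compound solution at 120, 60, 30 and 15 g a.i./ha, in triplicate. Effect scored after 15 days in greenhouse as 0–9 levels of fresh-weight growth control, averaged.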

[3] = system: Leptochloa chinensis; settings: 120 g a.i./ha, 15 days, fresh weight control rate
Excerpt: (1) Seedling Stage Sealing Experiment for Water-Seeding:
The activity level criteria for plant damage (i.e., growth control rate) are as follows: • Level 9: completely dead; • Level 8: growth control rate greater than or equal to 90% and less than 100%; • Level 7: growth control rate greater than or equal to 80% and less than 90%; • Level 6: growth control rate greater than or equal to 70% and less than 80%; • Level 5: growth control rate greater than or equal to 50% and less than 70%; • Level 4: growth control rate greater than or equal to 30% and less than 50%; • Level 3: growth control rate greater than or equal to 20% and less than 30%; • Level 2: growth control rate greater than or equal to 10% and less than 20%; • Level 1: growth control rate less than 10%; • Level 0: no effect.
The above growth control rates are fresh weight control rates.
Echinochloa phyllopogon, Digitaria sanguinalis, Huaidao (rice cultivar), etc. were broadcasted on the surface of nutrition bowls filled with soil and fully covered by soil. The foregoing well-prepared nutrition bowls were then placed in a cultivation box with water filled to a suitable height to keep the soil in the nutrition bowls moist. A test compound of the present invention was individually dissolved with acetone, then diluted into solution of a certain concentration using a certain amount of water, and sprayed using a spray tower. The plants were placed on a greenhouse seedbed and cultured for 15 days, and the experimental results were then collected. The compound was applied at 120, 60, 30 and 15 g a.i./ha in triplicate, and the results were averaged.

SMILES | Echinochloa crusgalli activity level (growth control rate) [1] | Echinochloa phyllopogon activity level (growth control rate) [2] | Leptochloa chinensis activity level (growth control rate) [3]
CCc1c(NC(=O)[C@H]2C(=O)N(C)C[C@@H]2c2cccc(C)c2)cnn1C [135′] | 9 | 7 (Level 7: growth control rate greater than or equal to 80% and less than 90%) | 9
Cc1cccc([C@H]2CN(C)C(=O)[C@@H]2C(=O)Nc2c(O)nn(C)c2F)c1 [147′] | 9 | 8 (Level 8: growth control rate greater than or equal to 90% and less than 100%) | 9
CN1C[C@H](c2cccc(C3CCCC3)c2)[C@@H](C(=O)Nc2cnn(C)c2Cl)C1=O [152′] | 9 | 8 (Level 8: growth control rate greater than or equal to 90% and less than 100%) | 9
CN1C[C@H](c2cccc(C(F)F)c2)[C@@H](C(=O)Nc2cnn(C)c2Cl)C1=O [154′] | 9 | 8 (Level 8: growth control rate greater than or equal to 90% and less than 100%) | 9
CN1C[C@H](c2cccc(C(F)(F)F)c2)[C@@H](C(=O)Nc2cnn(C(F)F)c2Cl)C1=O [158′] | 9 | 8 (Level 8: growth control rate greater than or equal to 90% and less than 100%) | 9
CN1C[C@H](c2cccc(C(F)(F)F)c2)[C@@H](C(=O)Nc2cnn(CCCl)c2Cl)C1=O [160′] | 6 (Level 6: growth control rate greater than or equal to 70% and less than 80%) | 5 (Level 5: growth control rate greater than or equal to 50% and less than 70%) | 9
CN1C[C@H](c2cccc(C(F)(F)F)c2)[C@@H](C(=O)Nc2cnn(CC(F)(F)F)c2Cl)C1=O [161′] | 9 | 8 (Level 8: growth control rate greater than or equal to 90% and less than 100%) | 9
CN1C[C@H](c2cccc(C(F)(F)F)c2)[C@@H](C(=O)Nc2cnn(C)c2I)C1=O [186′] | 9 | 7 (Level 7: growth control rate greater than or equal to 80% and less than 90%) | 9
CCc1c(NC(=O)[C@H]2C(=O)N(C)C[C@@H]2c2cccc(C(F)(F)F)c2)cnn1C [190′] | 9 | 8 (Level 8: growth control rate greater than or equal to 90% and less than 100%) | 9
COCc1c(NC(=O)[C@H]2C(=O)N(C)C[C@@H]2c2cccc(C(F)(F)F)c2)cnn1C [193′] | 9 | 7 (Level 7: growth control rate greater than or equal to 80% and less than 90%) | 9
CC(C)c1c(NC(=O)[C@H]2C(=O)N(C)C[C@@H]2c2cccc(C(F)(F)F)c2)cnn1C [194′] | 5 (Level 5: growth control rate greater than or equal to 50% and less than 70%) | 5 (Level 5: growth control rate greater than or equal to 50% and less than 70%) | 6 (Level 6: growth control rate greater than or equal to 70% and less than 80%)
CN1C[C@H](c2cccc(C(F)(F)F)c2)[C@@H](C(=O)Nc2cnn(C)c2C2CC2)C1=O [195′] | 9 | 7 (Level 7: growth control rate greater than or equal to 80% and less than 90%) | 9
CN1C[C@H](c2cccc(C(F)(F)F)c2)[C@@H](C(=O)Nc2cnn(C(F)F)c2C2CC2)C1=O [196′] | 9 | 9 | 9
CC(C)n1ncc(NC(=O)[C@H]2C(=O)N(C)C[C@@H]2c2cccc(C(F)(F)F)c2)c1C1CC1 [197′] | 8 (Level 8: growth control rate greater than or equal to 90% and less than 100%) | 6 (Level 6: growth control rate greater than or equal to 70% and less than 80%) | 9
C=Cc1c(NC(=O)[C@H]2C(=O)N(C)C[C@@H]2c2cccc(C(F)(F)F)c2)cnn1C [203′] | 9 | 9 | 9
CN1C[C@H](c2cccc(C(F)(F)F)c2)[C@@H](C(=O)Nc2c(O)nn(C)c2F)C1=O [212′] | 9 | 9 | 9
COc1cccc([C@H]2CN(C)C(=O)[C@@H]2C(=O)Nc2cnn(C)c2C2CC2)c1 [217′] | 9 | 6 (Level 6: growth control rate greater than or equal to 70% and less than 80%) | 6 (Level 6: growth control rate greater than or equal to 70% and less than 80%)
CN1C[C@H](c2cccc(OC(F)(F)F)c2)[C@@H](C(=O)Nc2c(O)nn(C)c2F)C1=O [229′] | 9 | 9 | 9
CN1C[C@H](c2cccc(OC(F)(F)C(F)F)c2)[C@@H](C(=O)Nc2cnn(C)c2Cl)C1=O [231′] | 9 | 6 (Level 6: growth control rate greater than or equal to 70% and less than 80%) | 9
CN1C[C@H](c2cc(F)cc(F)c2)[C@@H](C(=O)Nc2c(O)nn(C)c2F)C1=O [263′] | 9 | 8 (Level 8: growth control rate greater than or equal to 90% and less than 100%) | 9
Cc1cc(Br)cc([C@H]2CN(C)C(=O)[C@@H]2C(=O)Nc2cnn(C)c2Cl)c1 [265′] | 9 | 9 | 9
Cc1cc(C)cc([C@H]2CN(C)C(=O)[C@@H]2C(=O)Nc2cnn(C(F)F)c2Cl)c1 [269′] | 9 | 9 | 9
C=Cc1c(NC(=O)[C@H]2C(=O)N(C)C[C@@H]2c2cc(C)cc(C)c2)cnn1C [275′] | 9 | 9 | 9
CN1C[C@H](c2cc(F)cc(C(F)(F)F)c2)[C@@H](C(=O)Nc2cnn(C3CC3)c2Cl)C1=O [290′] | 9 | 8 (Level 8: growth control rate greater than or equal to 90% and less than 100%) | 9
CC(C)n1ncc(NC(=O)[C@H]2C(=O)N(C)C[C@@H]2c2cc(F)cc(C(F)(F)F)c2)c1Cl [291′] | 9 | 9 | 9
CN1C[C@H](c2cc(F)cc(C(F)(F)F)c2)[C@@H](C(=O)Nc2cnn(C)c2C2CC2)C1=O [293′] | 9 | 9 | 9
COc1cc(Cl)cc([C@H]2CN(C)C(=O)[C@@H]2C(=O)Nc2cnn(C)c2Cl)c1 [297′] | 9 | 6 (Level 6: growth control rate greater than or equal to 70% and less than 80%) | 9
CCOc1cc(F)cc([C@H]2CN(C)C(=O)[C@@H]2C(=O)Nc2cnn(C)c2Cl)c1 [299′] | 9 | 9 | 9
COc1cc(C)cc([C@H]2CN(C)C(=O)[C@@H]2C(=O)Nc2cnn(C)c2Cl)c1 [300′] | 9 | 7 (Level 7: growth control rate greater than or equal to 80% and less than 90%) | 9
CN1C[C@H](c2ccc(F)c(Cl)c2)[C@@H](C(=O)Nc2cnn(C)c2C2CC2)C1=O [308′] | 9 | 9 | 9
